Reference: patent US6090945A, “Tetrahydro-beta-carbolines” (Eli Lilly and Company, priority 1998, dated 2000)
Structures can show the parent of a compound that is named as a salt. Where two headings read alike, the source gives them in different places.

Columns and labels:
5-HT2 receptor = 5-HT2 receptor (Rattus norvegicus, UniProt P14842); test: 5-HT2 radioligand binding assay ([3H]ketanserin displacement); design: species or system rat (Sprague-Dawley cerebral cortex)
5-HT1c receptor [1] = target: T1, 5-HT1c receptor (Bos taurus, UniProt A0AAA9SBU1); test: 5-HT1c radioligand binding assay ([3H]mesulergine displacement); settings: read-out: 5HT1C IC50 (binding displacement); choroid plexus; tritiated mesulergine 2.0 nM; 37° C., 15 minutes
T1 sequence (A0AAA9SBU1 33-457): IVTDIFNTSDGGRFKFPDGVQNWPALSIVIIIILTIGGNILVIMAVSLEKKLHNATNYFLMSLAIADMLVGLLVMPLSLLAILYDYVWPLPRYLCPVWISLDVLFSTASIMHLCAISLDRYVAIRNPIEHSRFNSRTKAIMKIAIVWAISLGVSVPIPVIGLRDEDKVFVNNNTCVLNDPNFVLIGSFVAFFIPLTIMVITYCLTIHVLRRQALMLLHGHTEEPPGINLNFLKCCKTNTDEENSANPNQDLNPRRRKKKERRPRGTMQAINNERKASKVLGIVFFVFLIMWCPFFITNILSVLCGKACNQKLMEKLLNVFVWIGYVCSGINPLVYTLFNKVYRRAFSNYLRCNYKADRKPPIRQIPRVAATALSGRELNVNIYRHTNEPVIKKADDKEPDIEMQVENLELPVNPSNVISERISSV
Description: I. Assay for 5-HT1c Affinity
(§1) Beef brain was removed immediately after slaughter, and choroid plexus were dissected over ice. […] Tissues were homogenized in 9 volumes of 0.32 mol/L sucrose and centrifuged at 1,000×g for 10 minutes. The supernatant was centrifuged at 17,000×g for 20 minutes. The pellet was suspended in 100 volumes of 50 mM Tris-HCl (pH7.4), incubated at 37° C. for 10 minutes and centrifuged at 50,000×g for 10 minutes, and the process was repeated three times. The final pellets were frozen at -70° C. and used within 2 weeks. Pellets were rehydrated with physiological buffer prior to use.
(§2) The reactions were terminated by rapid filtration, (Brandel Cell Harvestor), through Whatman GF/B glass filters that had been presoaked in Tris buffer pH 7.4. The filters were then washed 2 times with 5 ml of ice cold Tris buffer pH 7.4. Washed filters were placed in scintillation vials and 10 ml RedySolv, (Brandel), was added and samples were counted in a Searle D-300 beta counter. Means and standard error statistics were calculated for triplicate experimental determinations in certain cases. Mean values were obtained from three or more separate determinations. The incubation time for the reaction mixture was 15 minutes at 37° C.

[2] = target: T2, cloned rat 5-HT2B receptor (Rattus norvegicus, UniProt P30994); test: 5-HT2B radioligand binding ([3H]5-HT), cloned rat receptor; settings: [3H]5-HT 2 nM, read-out: Rat 2B binding (IC50 converted to Ki)
T2 construct: expressed in transfected cells
Description: (§3) RAdioligand Binding Studies for 5-HT2 B:
Membrane preparation from transformed cells. Suspension cells expressing the cloned rat 5-HT2B receptor were harvested by centrifugation at 200×g for 15 min at 4° C. […] Membranes for the binding assays were prepared by vortexing the pellet in 50 mM Tris-HCl, pH 7.4 (0.5×10^9 cells/30 ml). The tissue suspension was then centrifuged at 39,800×g for 10 min at 4° C. This procedure was repeated for a total of three washes, with a 10 minute incubation at 37° C. between the first and second wash.
[^3 H]5-HT binding studies. Binding assays were automated using a Biomek 1000 (Beckman Instruments, Fullerton, Calif.) and were performed in triplicate in 0.8 ml total volume. Membrane suspension, 200 μl, (0.04-0.27 mg protein) and 200 μl of drug dilution in water were added to 400 μl of 67 mM Tris-HCl, pH 7.4, containing [^3 H]5-HT, pargyline, CaCl2, and L-ascorbic acid. Final concentrations of pargyline, CaCl2 and L-ascorbic acid were 10 μM, 3 mM and 0.1%, respectively. […] The amount of [^3 H]5-HT trapped on the filters was determined by liquid scintillation spectrometry (Ready Protein and Beckman LS 6000IC, Beckman Instruments, Fullerton, Calif.). For the saturation experiments, actual free radioligand concentrations were determined by sampling the supernatant of parallel saturation experiments in which bound radioactivity had been separated by centrifugation. […] Protein was determined by the method of Bradford, using bovine serum albumin as the standard.
(§4) The Kd and Bmax values from the saturation assays were determined for best fit to a one-site or a two-site binding model using a partial F-test. […] The IC50 values from the competition assays, the binding parameters for the IP3 standard curve and the EC50 and Emax values from the IP3 assays were determined by nonlinear regression analysis of four parameter logistic equations (Systat, Systat Inc, Evanston, Ill.). […]

Human 2A = Human 2A (Homo sapiens, UniProt P28223); test: radioligand binding, human 2A; settings: read-out: Human 2A binding (IC50 converted to Ki)
Description: The Kd and Bmax values from the saturation assays were determined for best fit to a one-site or a two-site binding model using a partial F-test. De Lean, A., A. A. Hancock, and R. J. Lefkowitz, Mol. Pharmacol. 21: 5-16 (1981). The following equation was used for a one-site binding model, [formula] where Bound=amount of [^3 H]5-HT specifically bound, Bmax =maximum number of binding sites, Kd =equilibrium dissociation constant and [L]=free concentration of [^3 H]5-HT, or a two-site binding model, [formula] where Bound=amount of [^3 H]5-HT specifically bound, Bmax1 =maximum number of high affinity binding sites, Bmax2 =maximum number of low affinity binding sites, Kd1 =equilibrium dissociation constant for the high affinity site, Kd2 =equilibrium dissociation constant for the low affinity site and [L]=free concentration of [^3 H]5-HT. The IC50 values from the competition assays, the binding parameters for the IP3 standard curve and the EC50 and Emax values from the IP3 assays were determined by nonlinear regression analysis of four parameter logistic equations (Systat, Systat Inc, Evanston, Ill.). De Lean, A., A. A. Hancock, and R. J. Lefkowitz, Mol. Pharmacol., 21: 5-16 (1981). The IC50 values were converted to Ki values using the Cheng-Prusoff equation. Cheng, Y., and W. H. Prusoff, Biochem. Pharmacol., 22: 3099-3108 (1973).

Human 2B = Human 2B (Homo sapiens, UniProt P41595); test: radioligand binding, human 2B; settings: read-out: Human 2B binding (IC50 converted to Ki)
Description: as §3
[^3 H]5-HT binding studies. Binding assays were automated using a Biomek 1000 (Beckman Instruments, Fullerton, Calif.) and were performed in triplicate in 0.8 ml total volume. Membrane suspension, 200 μl, (0.04-0.27 mg protein) and 200 μl of drug dilution in water were added to 400 μl of 67 mM Tris-HCl, pH 7.4, containing [^3 H]5-HT, pargyline, CaCl2, and L-ascorbic acid. Final concentrations of pargyline, CaCl2 and L-ascorbic acid were 10 μM, 3 mM and 0.1%, respectively. Tubes were incubated at 37° C. for 15 min or at 0° C. for 2 hours (binding equilibria were verified for both of these conditions), then rapidly filtered using a Brandel cell harvester (Model MB-48R; Brandel, Gaithersburg, Md.) through Whatman GF/B filters which had been presoaked in 0.5% polyethylenimine and precooled with ice-cold 50 mM Tris-HCl, pH 7.4. The filters were then washed rapidly four times with one ml ice-cold 50 mM Tris-HCl, pH 7.4. The amount of [^3 H]5-HT trapped on the filters was determined by liquid scintillation spectrometry (Ready Protein and Beckman LS 6000IC, Beckman Instruments, Fullerton, Calif.). For the saturation experiments, actual free radioligand concentrations were determined by sampling the supernatant of parallel saturation experiments in which bound radioactivity had been separated by centrifugation. […] 5-HT, 10 μM, or 1-naphthylpiperazine (1-NP), 10 μM, defined nonspecific binding. […] Protein was determined by the method of Bradford, using bovine serum albumin as the standard.
as §4

5-HT1c receptor [3] = test: 5-HT1c radioligand binding assay ([3H]mesulergine displacement); settings: versus 5-HT2, as shown by Table II
Description: I. Assay for 5-HT1c Affinity
as §1, §2

[4] = rat cerebral cortex, tritiated ketanserin 1 nM, 37° C., read-out: 5HT2 IC50 (binding displacement)

Sequence of Human 2A (P28223 whole entry): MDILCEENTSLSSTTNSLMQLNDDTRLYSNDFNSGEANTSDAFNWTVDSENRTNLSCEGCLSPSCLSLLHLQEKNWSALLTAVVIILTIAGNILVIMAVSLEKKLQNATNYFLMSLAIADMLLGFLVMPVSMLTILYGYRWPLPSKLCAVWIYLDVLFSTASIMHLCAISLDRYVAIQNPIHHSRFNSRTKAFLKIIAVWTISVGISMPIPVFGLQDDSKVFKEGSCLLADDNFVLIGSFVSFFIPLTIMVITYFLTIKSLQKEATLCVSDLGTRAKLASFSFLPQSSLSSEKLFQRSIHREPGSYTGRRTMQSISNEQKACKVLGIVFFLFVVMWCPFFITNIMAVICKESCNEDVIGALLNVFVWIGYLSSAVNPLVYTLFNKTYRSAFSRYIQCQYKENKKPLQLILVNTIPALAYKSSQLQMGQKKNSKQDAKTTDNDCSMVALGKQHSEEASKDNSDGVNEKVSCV
Sequence of Human 2B (P41595 whole entry): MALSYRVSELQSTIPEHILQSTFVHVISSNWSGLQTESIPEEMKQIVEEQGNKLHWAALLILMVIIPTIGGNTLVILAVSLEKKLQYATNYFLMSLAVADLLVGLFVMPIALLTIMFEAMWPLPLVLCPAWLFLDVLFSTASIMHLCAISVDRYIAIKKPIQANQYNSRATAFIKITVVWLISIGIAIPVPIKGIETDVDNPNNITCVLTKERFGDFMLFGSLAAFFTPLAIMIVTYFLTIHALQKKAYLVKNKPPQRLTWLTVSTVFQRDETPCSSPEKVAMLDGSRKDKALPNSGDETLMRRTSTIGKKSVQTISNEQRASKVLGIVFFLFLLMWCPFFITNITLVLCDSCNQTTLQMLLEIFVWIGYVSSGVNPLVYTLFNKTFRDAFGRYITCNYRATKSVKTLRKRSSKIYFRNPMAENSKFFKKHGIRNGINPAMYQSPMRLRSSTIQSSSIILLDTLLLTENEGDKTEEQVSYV
Sequence of 5-HT2 receptor (P14842 whole entry): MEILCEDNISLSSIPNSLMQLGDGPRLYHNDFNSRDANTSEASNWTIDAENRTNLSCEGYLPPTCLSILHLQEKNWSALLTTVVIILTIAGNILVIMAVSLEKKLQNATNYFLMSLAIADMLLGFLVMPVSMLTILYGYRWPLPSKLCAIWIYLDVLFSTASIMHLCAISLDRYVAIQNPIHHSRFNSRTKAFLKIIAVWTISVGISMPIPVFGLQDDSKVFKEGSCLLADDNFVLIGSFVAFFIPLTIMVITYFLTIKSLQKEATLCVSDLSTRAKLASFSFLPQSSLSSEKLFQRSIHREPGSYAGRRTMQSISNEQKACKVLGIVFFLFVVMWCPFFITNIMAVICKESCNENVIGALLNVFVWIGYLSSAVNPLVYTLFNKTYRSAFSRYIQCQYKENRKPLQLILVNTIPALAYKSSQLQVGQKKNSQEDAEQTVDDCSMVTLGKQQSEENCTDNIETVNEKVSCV
T2 sequence (P30994 whole entry): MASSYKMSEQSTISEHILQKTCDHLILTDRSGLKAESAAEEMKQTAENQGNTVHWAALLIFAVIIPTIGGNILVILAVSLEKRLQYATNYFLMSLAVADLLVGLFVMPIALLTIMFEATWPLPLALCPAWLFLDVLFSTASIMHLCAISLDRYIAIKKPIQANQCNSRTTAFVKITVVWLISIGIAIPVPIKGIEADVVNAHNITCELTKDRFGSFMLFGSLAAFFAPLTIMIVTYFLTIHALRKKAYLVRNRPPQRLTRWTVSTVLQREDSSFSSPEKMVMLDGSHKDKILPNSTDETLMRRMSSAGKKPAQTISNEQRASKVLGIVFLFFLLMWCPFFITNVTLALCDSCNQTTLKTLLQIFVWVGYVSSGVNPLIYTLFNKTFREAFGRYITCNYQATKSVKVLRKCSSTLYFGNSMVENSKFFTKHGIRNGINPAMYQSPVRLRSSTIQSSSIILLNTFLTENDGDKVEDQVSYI

| Compound | IC50 (5-HT2 receptor) | IC50 (5-HT1c receptor [1]) | Ki [2] | IC50 (5-HT2 receptor; [4]) | Ki (Human 2A) | Ki (Human 2B) | 5-HT1c selectivity (low IC50 in 5-HT1c assay, higher IC50 in 5-HT2 assay) (5-HT1c receptor [3]) |
| --- | --- | --- | --- | --- | --- | --- | --- |
| COc1ccc(CC2NCCc3c2[nH]c2ccc(C)cc32)c(OC)c1OC (centres unmarked) [Example 22, 6-methyl-1-[(2,3,4-trimethoxyphenyl)-methyl]-1,2,3,4-tetrahydro-9H-pyrido[3,4-b]indole hydrochloride] | 1420 nM | 30 nM | 5.39 nM | – | – | – | – |
| COc1ccc([C@@H](C)[C@@H]2NCCc3c2[nH]c2ccc(C)cc32)cc1OC (relative stereo) [Example 40] | – | 171 nM | 5.61 nM | 293 nM | 44.5 nM | 1.4 nM | – |
| COc1ccc(CC2NCCc3c2[nH]c2c(Br)c(C)ccc32)cc1OC.Cl (centres unmarked) [Example 7, 7-methyl-8-bromo-1-[(3,4-dimethoxyphenyl)-methyl]-1,2,3,4-tetrahydro-9H-pyrido[3,4-b]indole hydrochloride] | > 100 nM | 5.1 nM | – | – | – | – | particularly 5-HT1c selective |
| COc1ccc(CC2NCCc3c2[nH]c2ccc(C(C)C)cc32)cc1OC (centres unmarked) [Example 13, 6-(1-methylethyl)-1,2,3,4-tetrahydro-1-[(3,4-dimethoxyphenyl)methyl]-9H-pyrido[3,4b]indole] | – | 48 nM | – | 433 nM | – | – | particularly 5-HT1c selective |
| CC[C@H](c1ccc(OC)c(OC)c1)[C@@H]1NCCc2c1[nH]c1ccc(C)cc21 (relative stereo) [Example 43, (±) 6-methyl-1-[(3,4-dimethoxyphenyl)-1-propyl]-1,2,3,4-tetrahydro-9H-pyrido[3,4-b]indole (Z)-2-butenedioate] | – | 139 nM | – | 178 nM | 17.5 nM | 0.87 nM | – |
| COc1ccc(CC2NCCc3c2[nH]c2c3ccc3ccccc32)cc1OC (centres unmarked) [Example 10, 7,8,9,10-tetrahydro-10-[(3,4-dimethoxyphenyl)methyl]-11H-benzo [g]pyrido[3,4-b]indole] | – | 43 nM | – | 219 nM | – | – | particularly 5-HT1c selective |
| COc1ccc(CC2NCCc3c2[nH]c2cc(C)cc(C)c32)cc1OC (centres unmarked) [Example 15, 5,7-dimethyl-1,2,3,4-tetrahydro-1-[(3,4-dimethoxyphenyl)methyl]-9H-pyrido[3,4b]indole hydrochloride] | – | 14 nM | – | > 100 nM | – | – | particularly 5-HT1c selective |
| COc1ccc(CC2NCCc3c2[nH]c2cc(C)c(C)cc32)cc1OC (centres unmarked) [Example 16, 6,7-dimethyl-1,2,3,4-tetrahydro-1-[(3,4-dimethoxyphenyl)methyl]-9H-pyrido[3,4b]indole] | – | 63 nM | – | 2110 nM | – | – | particularly 5-HT1c selective |
| COc1ccc([C@@H](C)[C@@H]2NCCc3c2[nH]c2cc(C)c(C)cc32)cc1OC (relative stereo) [Example 41, (±) 6,7-dimethyl-1-[(3,4-dimethoxyphenyl)-1-ethyl]-1,2,3,4-tetrahydro-9H-pyrido[3,4-b]indole (Z)-2-butenedioate] | – | 127 nM | 6.42 nM | 173 nM | 23.1 nM | 2.01 nM | – |
| COc1ccc(CC2NCCc3c2[nH]c2c(Br)cc(Br)cc32)cc1OC (centres unmarked) [Example 3, 6,8-dibromo-1-[(3,4-dimethoxyphenyl)methyl]-1,2,3,4-tetrahydro-9H-pyrido[3,4-b]indole] | – | 29 nM | – | 900 nM | – | – | particularly 5-HT1c selective |
